# Results published in patent US20070166367A1, “Adept or gdept producing acetaldehyde” (priority 2004, published 2007).
# Like-named read-outs stand apart in the source and are kept apart here.
# Key:
# Ad-ADH CMT-64 cells [1] = test: Ad-ADH ethanol cytotoxicity assay; assay type: cell-based; details: for numbers of cells: seeded at 5×10^5 on Day 0, day 2, FIG. 4; for total cell number as % of the starting number: ethanol
# Experimental: (§1) Cells were placed into 6 well plates at 5×10^6 per well. After overnight incubation, the cells were washed twice in PBS then incubated with virus (Hela MOI 100, CMT-64 MOI 1000) at 37° C. for 1 hr in 1 ml of serum free media. Following addition of 3 mls more of tissue culture medium the cells were incubated overnight, assayed for ADH activity and used for experiments as below.
# Ad-ADH Hela cells = test: Ad-ADH ethanol cytotoxicity assay; assay type: cell-based; details: seeded at 5×10^5 on Day 0, day 2, FIG. 4
# Experimental: as §1
# CMT-64 = test: in vitro acetaldehyde and cisplatin toxicity assay; assay type: cell-based; details: FIG. 2
# Experimental: (§2) Standard tissue culture techniques were used to maintain Hela, Daudi, Jurkat, CMT-64 cells in flasks in DMEM+10% FCS in a 37° C. incubator.
# (§3) Cell lines subcloned into 25-cm^2 flasks and incubated in media containing dilutions of acetaldehyde, cisplatin or both. Flasks remained sealed during incubation and the media and acetaldehyde/cisplatin were replaced daily. Viable cell counts were made using Trypan blue exclusion and a standard haemocytometer.
# Daudi = test: in vitro acetaldehyde and cisplatin toxicity assay; assay type: cell-based; details: higher cell density, 3 days exposure, FIG. 2
# Experimental: as §2, §3
# Daudi lymphoma cells = test: acetaldehyde combined with Cisplatin in vitro; assay type: cell-based
# Excerpt: The results shown are the number of live cells at each time point shown as a % of the number of cells at the start of the expt (ie 100% at time 0 hrs).
# [2] = chronic exposure to ethanol (4%), +12 weeks; cited from earlier work
# Ad-ADH CMT-64 cells [3] = tested on: Ad-ADH CMT-64 cells
# Experimental: (§4) The animal experiment was approved by the Cancer Research UK animal use and safety committee and the Home Office before initiation. On the day prior to injection, 6×10^6 CMT-64 cells were transduced with the Ad-ADH virus in vitro, then on Day 0 adult C57B/6 mice received s-c injections in the flank of 5×10^5 Ad-ADH CMT-64 cells (groups 1 and 2) or mock infected CMT-64 cells (groups 3 and 4) suspended in 100 uL of PBS. On days 0-4 groups 1 and 3 were injected with 500 ul of 12% ethanol (2 g/kg) solution IP and groups 2 and 4 received 500 uL of water IP, there were 6 mice in each group. Tumour volume was estimated twice weekly using the formula: volume=(length×width×width)×(3.142/6).
# (§5) Tumour size was measure on Days 6, 10 and 13; the results are shown as the mean and SD from 6 mice per group.
# wild type CMT-64 cells = details: ethanol 2 g/kg IP days 0-4 (group 3)
# Experimental: as §4, §5
# [4] = in vivo; cited from earlier work
# [5] = cited from earlier work
# CMT-64 cells = details: ethanol IP for several days, particularly on Day 6, FIG. 5
# Experimental: CMT-64 cells are injected s-c into mice and tumour growth allowed to proceed.
# Virus described above is introduced into the CMT-64 cells.
# Alcohol (ethanol) is injected IP for several days.
# Tumour dimensions are monitored thereafter.
smiles,measurement,setting,value
"N.N.[Cl][Pt][Cl] [cisplatin, Cisplatin]",numbers of cells,Ad-ADH CMT-64 cells [1],3.75×10^5
same,numbers of cells,Ad-ADH Hela cells,3.2×10^5
same,cell number as % of starting number,CMT-64,80%
same,cell number as % of starting number,Daudi,21%
same,number of live cells as a % of the number of cells at the start,"Daudi lymphoma cells; Cisplatin at 30 μM, 6 hr",147%
same,number of live cells as a % of the number of cells at the start,"Daudi lymphoma cells; Cisplatin at 30 μM, 18 hr",122%
same,number of live cells as a % of the number of cells at the start,"Daudi lymphoma cells; Cisplatin at 30 μM, 21 hr",76%
same,number of live cells as a % of the number of cells at the start,"Daudi lymphoma cells; Cisplatin at 30 μM, 25 hr",82%
same,number of live cells as a % of the number of cells at the start,"Daudi lymphoma cells; Cisplatin at 30 μM, 42 hr",36%
same,number of live cells as a % of the number of cells at the start,"Daudi lymphoma cells; repeated experiment, +25 hours",63%
"Cc1cn[nH]c1 [4-MP, 4-methylpyrazole]",effect on ethanol mediated growth reduction,Ad-ADH CMT-64 cells [1]; 4-MP 10 uMol,blocking of this effect
CCO [ethanol],cardiac toxicity,[2],severe myocardial damage
same,cell number as % of non-ethanol exposed controls,Ad-ADH CMT-64 cells [1]; 2 days ethanol exposure,30%
same,number of cells,"Ad-ADH CMT-64 cells [1]; ethanol 20 mM, day 2, FIG. 3",3.7×10^5
same,total cell number as % of the starting number,Ad-ADH CMT-64 cells [1]; day 2,74%
same,total cell number as % of the starting number,Ad-ADH CMT-64 cells [1]; day 4,36%
same,number of cells,"Ad-ADH CMT-64 cells [1]; extended ethanol exposure, day 4",1.8×10^5
same,numbers of cells,Ad-ADH CMT-64 cells [1],3.5×10^5
same,numbers of cells,Ad-ADH Hela cells,6.2×10^5
same,tumour size of one mouse,"Ad-ADH CMT-64 cells [3]; Day 10 and Day 23, no further increase",0.058 cm3
same,median size as % of the water treated controls,Ad-ADH CMT-64 cells [3]; day 6,30%
same,median size as % of the water treated controls,Ad-ADH CMT-64 cells [3]; day 13,42%
same,mean size of the tumours,"Ad-ADH CMT-64 cells [3]; ethanol 2 g/kg IP days 0-4, day 6",0.036 cm^3
same,mean size of the tumours,"Ad-ADH CMT-64 cells [3]; ethanol 2 g/kg IP days 0-4, day 13",0.18 cm3
same,mean tumour volumes,wild type CMT-64 cells; day 6,0.1645 cm^3
same,mean tumour volumes,wild type CMT-64 cells; day 13,0.514 cm^3
same,well tolerated levels,[4],500 to 2500 mg/L
same,time until blood ethanol levels fell below the limit of detection,[5]; IP ethanol injections of 3.7-3.8 g/kg,6 to 7 h
same,rate of ethanol metabolism in mice relative to humans,"[5]; mouse, in vivo",5 times
same,tumour growth,CMT-64 cells,significant inhibition of growth
